# Experimental data from the supplement of paper PMC10307832.
# Columns and labels:
# Test in all cases: relative viability (nuclei count vs DMSO), 5 days (fraction); higher = more cells survive
# [1] = compound: CC(=O)c1c(C)c2cnc(Nc3ccc(N4CCNCC4)cn3)nc2n(C2CCCC2)c1=O [Palbociclib] + CC1(C)CCC(c2ccc(Cl)cc2)=C(CN2CCN(c3ccc(C(=O)NS(=O)(=O)c4ccc(N[C@H](CCN5CCOCC5)CSc5ccccc5)c(S(=O)(=O)C(F)(F)F)c4)cc3)CC2)C1 [Navitoclax] (partner 0.5 µM)
# Outline: (§1)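 A single step with final 0.05% Triton X-100, 1% formaldehyde and 1 ug/ml Hoechst fixed the cells and stained nuclei 5 days after treatment. Lung cancer cell lines in 1536-well plates had been treated by pin tool the day after seeding with one drug alone or a fixed anchor-drug dose plus five library-drug doses (not always all listed) in √10 steps, and nuclei were counted on 4× images. Relative viability is the ratio of nuclei in treated wells to nuclei in vehicle wells, taken as the median of duplicate plates.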
# [2] = compound: CC(=O)c1c(C)c2cnc(Nc3ccc(N4CCNCC4)cn3)nc2n(C2CCCC2)c1=O [Palbociclib] + Cc1nc(NC(=O)N2CCC[C@H]2C(N)=O)sc1-c1ccnc(C(C)(C)C(F)(F)F)c1 [Alpelisib] (partner 2 µM)
# Outline: as §1
# [3] = compound: CC(=O)c1c(C)c2cnc(Nc3ccc(N4CCNCC4)cn3)nc2n(C2CCCC2)c1=O [Palbociclib] + O=C(CCCCCCC(=O)Nc1ccccc1)NO [Vorinostat] (partner 1 µM)
# Outline: as §1
# [4] = compound: CC(=O)c1c(C)c2cnc(Nc3ccc(N4CCNCC4)cn3)nc2n(C2CCCC2)c1=O [Palbociclib] + O=C(c1cc(Cc2n[nH]c(=O)c3ccccc23)ccc1F)N1CCN(C(=O)C2CC2)CC1 [Olaparib] (partner 8 µM)
# Outline: as §1
cell line,measurement,setting,value
HOP-62,relative viability,[1]; first compound 0.01 µM,0.959
same,relative viability,[1]; first compound 0.03162 µM,0.68
same,relative viability,[1]; first compound 0.1 µM,0.893
same,relative viability,[1]; first compound 0.3162 µM,0.86
same,relative viability,[1]; first compound 1 µM,0.625
same,relative viability,[2]; first compound 0.01 µM,0.851
same,relative viability,[2]; first compound 0.1 µM,0.797
same,relative viability,[2]; first compound 0.3162 µM,0.831
same,relative viability,[2]; first compound 1 µM,0.648
same,relative viability,[3]; first compound 0.01 µM,0.499
same,relative viability,[3]; first compound 0.1 µM,0.423
same,relative viability,[3]; first compound 0.3162 µM,0.482
same,relative viability,[3]; first compound 1 µM,0.395
same,relative viability,[4]; first compound 0.01 µM,0.319
same,relative viability,[4]; first compound 0.1 µM,0.618
same,relative viability,[4]; first compound 0.3162 µM,0.399
same,relative viability,[4]; first compound 1 µM,0.452
NCI-H522,relative viability,[3]; first compound 0.01 µM,0.912
same,relative viability,[3]; first compound 0.03162 µM,0.536
same,relative viability,[3]; first compound 0.1 µM,0.906
same,relative viability,[3]; first compound 0.3162 µM,1.03
same,relative viability,[3]; first compound 1 µM,0.802
same,relative viability,[4]; first compound 0.01 µM,0.642
same,relative viability,[4]; first compound 0.03162 µM,0.612
same,relative viability,[4]; first compound 0.1 µM,0.689
same,relative viability,[4]; first compound 0.3162 µM,0.678
same,relative viability,[4]; first compound 1 µM,0.616
NCI-H1944,relative viability,[1]; first compound 0.01 µM,1.03
same,relative viability,[1]; first compound 0.03162 µM,1.06
same,relative viability,[1]; first compound 0.1 µM,0.878
same,relative viability,[1]; first compound 0.3162 µM,1.03
same,relative viability,[1]; first compound 1 µM,0.987
same,relative viability,[2]; first compound 0.01 µM,0.859
same,relative viability,[2]; first compound 0.03162 µM,0.723
same,relative viability,[2]; first compound 0.1 µM,0.648
same,relative viability,[2]; first compound 0.3162 µM,0.758
same,relative viability,[2]; first compound 1 µM,0.525
same,relative viability,[3]; first compound 0.01 µM,0.579
same,relative viability,[3]; first compound 0.03162 µM,0.456
same,relative viability,[3]; first compound 0.1 µM,0.399
same,relative viability,[3]; first compound 0.3162 µM,0.475
same,relative viability,[3]; first compound 1 µM,0.343
same,relative viability,[4]; first compound 0.01 µM,0.411
same,relative viability,[4]; first compound 0.03162 µM,0.397
same,relative viability,[4]; first compound 0.1 µM,0.404
same,relative viability,[4]; first compound 0.3162 µM,0.341
same,relative viability,[4]; first compound 1 µM,0.339
NCI-H1793,relative viability,[1]; first compound 0.01 µM,0.382
same,relative viability,[1]; first compound 0.03162 µM,0.38
same,relative viability,[1]; first compound 0.1 µM,0.506
same,relative viability,[1]; first compound 0.3162 µM,0.394
same,relative viability,[1]; first compound 1 µM,0.369
same,relative viability,[2]; first compound 0.01 µM,0.749
same,relative viability,[2]; first compound 0.03162 µM,0.73
same,relative viability,[2]; first compound 0.1 µM,0.687
same,relative viability,[2]; first compound 0.3162 µM,0.487
same,relative viability,[2]; first compound 1 µM,0.547
same,relative viability,[3]; first compound 0.01 µM,0.824
same,relative viability,[3]; first compound 0.03162 µM,0.564
same,relative viability,[3]; first compound 0.1 µM,0.531
same,relative viability,[3]; first compound 0.3162 µM,0.664
same,relative viability,[3]; first compound 1 µM,0.287
same,relative viability,[4]; first compound 0.01 µM,1.03
same,relative viability,[4]; first compound 0.03162 µM,0.628
same,relative viability,[4]; first compound 0.1 µM,0.832
same,relative viability,[4]; first compound 0.3162 µM,0.81
same,relative viability,[4]; first compound 1 µM,0.501
SK-MES-1,relative viability,[1]; first compound 0.01 µM,1.36
same,relative viability,[1]; first compound 0.03162 µM,1.22
same,relative viability,[1]; first compound 0.1 µM,0.821
same,relative viability,[1]; first compound 0.3162 µM,0.745
same,relative viability,[1]; first compound 1 µM,0.477
same,relative viability,[2]; first compound 0.01 µM,0.841
same,relative viability,[2]; first compound 0.03162 µM,0.815
same,relative viability,[2]; first compound 0.1 µM,0.507
same,relative viability,[2]; first compound 0.3162 µM,0.56
same,relative viability,[2]; first compound 1 µM,0.356
same,relative viability,[3]; first compound 0.01 µM,1.08
same,relative viability,[3]; first compound 0.03162 µM,0.902
same,relative viability,[3]; first compound 0.1 µM,0.735
same,relative viability,[3]; first compound 0.3162 µM,0.763
same,relative viability,[3]; first compound 1 µM,0.395
same,relative viability,[4]; first compound 0.01 µM,0.695
same,relative viability,[4]; first compound 0.03162 µM,0.57
same,relative viability,[4]; first compound 0.1 µM,0.446
same,relative viability,[4]; first compound 0.3162 µM,0.343
same,relative viability,[4]; first compound 1 µM,0.205
NCI-H1650,relative viability,[1]; first compound 0.01 µM,1.41
same,relative viability,[1]; first compound 0.03162 µM,1.07
same,relative viability,[1]; first compound 0.1 µM,0.948
same,relative viability,[1]; first compound 0.3162 µM,1.03
same,relative viability,[1]; first compound 1 µM,0.673
same,relative viability,[3]; first compound 0.01 µM,0.607
same,relative viability,[3]; first compound 0.03162 µM,0.558
same,relative viability,[3]; first compound 0.1 µM,0.523
same,relative viability,[3]; first compound 0.3162 µM,0.39
same,relative viability,[3]; first compound 1 µM,0.31
same,relative viability,[4]; first compound 0.01 µM,0.795
same,relative viability,[4]; first compound 0.03162 µM,0.562
same,relative viability,[4]; first compound 0.1 µM,0.551
same,relative viability,[4]; first compound 0.3162 µM,0.642
same,relative viability,[4]; first compound 1 µM,0.513
LCLC-103H,relative viability,[2]; first compound 0.01 µM,0.756
same,relative viability,[2]; first compound 0.03162 µM,1.03
same,relative viability,[2]; first compound 0.1 µM,0.821
same,relative viability,[2]; first compound 0.3162 µM,0.796
same,relative viability,[2]; first compound 1 µM,0.688
same,relative viability,[3]; first compound 0.01 µM,0.743
same,relative viability,[3]; first compound 0.03162 µM,0.512
same,relative viability,[3]; first compound 0.1 µM,0.62
same,relative viability,[3]; first compound 0.3162 µM,0.668
same,relative viability,[3]; first compound 1 µM,0.445
same,relative viability,[4]; first compound 0.01 µM,0.701
same,relative viability,[4]; first compound 0.03162 µM,0.709
same,relative viability,[4]; first compound 0.1 µM,0.731
same,relative viability,[4]; first compound 0.3162 µM,0.669
same,relative viability,[4]; first compound 1 µM,0.584
LU99A,relative viability,[1]; first compound 0.01 µM,0.789
same,relative viability,[1]; first compound 0.03162 µM,0.677
same,relative viability,[1]; first compound 0.1 µM,0.759
same,relative viability,[1]; first compound 0.3162 µM,0.601
same,relative viability,[1]; first compound 1 µM,0.522
same,relative viability,[2]; first compound 0.01 µM,0.539
same,relative viability,[2]; first compound 0.03162 µM,0.432
same,relative viability,[2]; first compound 0.1 µM,0.425
same,relative viability,[2]; first compound 0.3162 µM,0.39
same,relative viability,[2]; first compound 1 µM,0.33
same,relative viability,[3]; first compound 0.01 µM,0.517
same,relative viability,[3]; first compound 0.1 µM,0.435
same,relative viability,[3]; first compound 0.3162 µM,0.587
same,relative viability,[3]; first compound 1 µM,0.399
same,relative viability,[4]; first compound 0.01 µM,0.24
same,relative viability,[4]; first compound 0.1 µM,0.281
same,relative viability,[4]; first compound 0.3162 µM,0.26
same,relative viability,[4]; first compound 1 µM,0.271
201T,relative viability,[1]; first compound 0.01 µM,1.22
same,relative viability,[1]; first compound 0.03162 µM,1.2
same,relative viability,[1]; first compound 0.1 µM,1.08
same,relative viability,[1]; first compound 0.3162 µM,1.08
same,relative viability,[1]; first compound 1 µM,1.01
same,relative viability,[2]; first compound 0.01 µM,0.995
same,relative viability,[2]; first compound 0.03162 µM,1.04
same,relative viability,[2]; first compound 0.1 µM,0.884
same,relative viability,[2]; first compound 0.3162 µM,0.974
same,relative viability,[2]; first compound 1 µM,0.728
same,relative viability,[3]; first compound 0.01 µM,1.02
same,relative viability,[3]; first compound 0.03162 µM,0.567
same,relative viability,[3]; first compound 0.1 µM,0.837
same,relative viability,[3]; first compound 0.3162 µM,0.752
same,relative viability,[3]; first compound 1 µM,0.532
same,relative viability,[4]; first compound 0.01 µM,0.817
same,relative viability,[4]; first compound 0.03162 µM,0.819
same,relative viability,[4]; first compound 0.1 µM,0.781
same,relative viability,[4]; first compound 0.3162 µM,0.684
same,relative viability,[4]; first compound 1 µM,0.65
NCI-H1563,relative viability,[2]; first compound 0.01 µM,0.896
same,relative viability,[2]; first compound 0.03162 µM,0.887
same,relative viability,[2]; first compound 0.1 µM,0.897
same,relative viability,[2]; first compound 0.3162 µM,0.808
same,relative viability,[2]; first compound 1 µM,0.765
